Laboratory results from patent publication US8192962B2, “Processes for detecting toxic substances” (Daikin Industries, Ltd., priority 2001, dated 2012).

System: DNA repair protein genes
Assay: DNA chip mRNA expression in yeast, DNA repair protein genes (Table 3)
Format: cell-based, Saccharomyces cerevisiae S288C
Conditions: incubated two hours, concentrations as in the 1st table
Protocol: Yeast (Saccharomyces cerevisiae S288C (α SUC2mal mel gap2 CUP1)) were incubated at 25° C. on YPD medium (yeast extract 1%, polypepton 2%, glucose 2%). One of toxic chemical substances was added to the cells at logarithmic growth phase, and the cells were further incubated for two hours. Cells were cultured without any chemical substance in the same condition, and were used as control. Concentrations of the chemical substances were defined to inhibit the growth of the yeast but not lead to death.
After completion of the incubation, the culture was centrifuged to collect the cells. To the cells, sodium acetate buffer (50 mM sodium acetate, 10 mM EDTA, 1% SDS) was added, and the mixture was shaken at 65° C. for five minutes, followed by returning to room temperature, and obtaining the supernatant, of which the procedures were repeated two times. To the supernatant, ½ amount of a solution of phenol/chloroform was added, and the mixture was centrifuged to give a supernatant, which was added with an equal amount of chloroform, and the mixture was centrifuged to give a supernatant. To the supernatant, an equal amount of isopropanol containing 0.3 M sodium acetate was added, and the mixture was allowed to stand at room temperature for 30 minutes, after which the mixture was centrifuged to give a sediment of the whole RNAs. Seventy % ethanol was added to the sediment, and the mixture was again centrifuged to give a sediment, which was then dried and dissolved in water. mRNA was isolated from the whole RNAs as followings. In view of the fact that a poly A chain is attached to the 3′ terminus of mRNA, a polynucleotide having a poly T structure which was immobilized on the surface of latex beads was used to trap the mRNA, and then the mRNA was washed and eluted with spine column (Oligotex-dT30<Super>mRNA Purification Kit, Takara). Reverse transcription of the mRNA was conducted with a reverse transcriptase (Super Script II Reverse Transcriptase; catalogue No. 18064-014, GibcoBRL) using fluorescence-labeled nucleotides to give cDNAs that were introduced with Cy3-dUTP or Cy5-dUTP during the reverse transcription.
The labeled cDNAs were dissolved in TE buffer (10mM Tris-HCl/1 mM EDTA, pH8.0), and the solution was dropped on the DNA chip containing the whole genes of yeast (DNA Chip Research Inc. Japan) so that the cDNAs were hybridized on the DNA chip at 65° C. for over 12 hours. The fluoresces intensity of the DNA chip was read with a scanner, and the ratio relative to the fluorescence intensity resulting from the absence of chemical substance was estimated as the following, which is shown in Tables 1 to 9: […]

Measured: The level of expressed mRNA in the presence of chemical substance/The level of expressed mRNA in the absence of chemical substance

Na2As [(1)]
1.4: yeast gene YDL200C | yeast gene YGL249W
1.2: yeast gene YAL015C | yeast gene YLR288C | yeast gene YMR035W | yeast gene YOR005C
1.0: yeast gene YER162C | yeast gene YGL127C | yeast gene YGR231C | yeast gene YJR046W | yeast gene YNL261W | yeast gene YOR386W
1.3: yeast gene YDR054C
2.5: yeast gene YJL026W
1.7: yeast gene YMR096W | yeast gene YNL213C
3.4: yeast gene YFL014W
1.9: yeast gene YML058W
0.8: yeast gene YBR272C | yeast gene YCR014C | yeast gene YDL017W | yeast gene YIL072W | yeast gene YIL153W | yeast gene YIR002C | yeast gene YKL145W | yeast gene YLR103C | yeast gene YML032C
2.6: yeast gene YDL059C
1.1: yeast gene YDR369C | yeast gene YEL019C | yeast gene YGL058W | yeast gene YJR052W | yeast gene YLR233C | yeast gene YMR072W | yeast gene YMR284W | yeast gene YOL043C | yeast gene YPL164C | yeast gene YPR025C
0.9: yeast gene YBL019W | yeast gene YEL037C | yeast gene YGL163C | yeast gene YHR164C | yeast gene YIL036W | yeast gene YIL143C | yeast gene YNL250W | yeast gene YNL312W | yeast gene YPL194W
0.7: yeast gene YAR007C | yeast gene YBR073W | yeast gene YGR258C | yeast gene YPL022W
2.0: yeast gene YGL091C
3.1: yeast gene YGR180C
